Test system: COMT II (−1215 to +24)/GUS
Test: Induction of GUS activity in COMT II (−1215 to +24)/GUS transgenic plants by elicitors and chemical products
Format: in vivo, Nicotiana tabacum cv. Samsun NN
Settings: for GUS Activity: leaves 16 h after infiltration, SA 1 mM, INA 1 mM, chitins 100 μg/ml, glucans 200 μg/ml, pectins 200 μg/ml; for Induction %: nontreated control C = 100, 16 h after infiltration, concentrations as for GUS Activity column
Procedure: The transgenic plants containing the construct COMT II (−1215 to +24)/GUS were treated with various chemical products, regulators of defense reactions, with methyl-2,6-dichloroisonicotinic (INA) and salicylic acid (SA), with fungal elicitors such as glucans or fragments of chitin and an elicitor of plant origin, such as pectin. The GUS activity is expressed in pmol MU/min.mg. The control (C) corresponds to the basal GUS activity in the nontreated transformed plants.
The induction of the 1239 bp promoter was studied during injury or after treatment with methyl jasmonate (molecule which plays a role in defense response signaling during injury) or with benzothiadiazole (BTH) (chemical SAR-inducer). The GUS activity is measured 16 h after treatment.
The COMT II and GUS activities were assayed on 100 mg of tissues. The tissue is homogenized in a 100 mM sodium phosphate buffer at pH 7.5 containing 10 mM of DTT, after addition of polyclar AT (Serva) and of quartz. The crude extracts are clarified by centrifugation and by filtration on glass wool. The GUS and COMT II activities are measured on the same crude extracts. For measuring the COMT II activity, an aliquot of the protein extract is added to 1 ml of phosphate buffer comprising 100 μM of catechol and 50 μM of tritiated S-adenosyl-L-methionine (1.5×10^5 cpm/ml) and incubated for 3 hours at 37° C. The reaction is stopped by adding 100 μl of 9M sulfuric acid. The radioactive reaction product, […], is extracted with 5 ml of an NA scintillation solution (Beckman) and the radioactivity is counted on a Beckman LS 9000 machine. The fluorimetric measurement of the GUS activity is performed on the same samples, according to the procedure of Jefferson et al. (1987). The protein content is determined by the Bradford method (1976) using Biorad reagents.
Treatment with an elicitor: Solutions are infiltrated, using a syringe equipped with a fine needle, in the mesophyl of the leaves. The infiltrated regions are delimited with a felt-tip marker. The infiltrated regions are harvested 16 hours after treatment. The leaves are treated with a solution of β-megaspermine, a protein elicitor purified from a Phytophthora megasperma culture medium (Kauffmann et al., 1993), or of oligosaccharides such as chitin oligomers (100 μg/ml), glucan fragments (200 μg/ml) and pectin fragments (200 μg/ml). The control plants are infiltrated with water.
Chemical treatments: (1) Solutions of SA (1 mM) or of INA (50 mM) are infiltrated into tobacco leaves using.the protocol described for the treatment with elicitors. (2) Under identical culture conditions, solutions of SA (10 mM), INA (1 mM) or BTH (50 mM) are sprayed onto the transgenic plants. The tissues are recovered 16 hours after treatment. Plants treated with water are used as a control. (3) Seven-week-old plants or leaves of vitroplants kept alive on water are transferred into transparent, hermetically sealed dishes and subjected to an atmosphere of 3.5 mM of MeJa (Serva). The tissues are removed at various times after treatment. The control plants are placed in the same dishes without MeJa.

[1] = 1239 bp promoter, 16 h after treatment

## c1ccc2snnc2c1 [BTH, benzothiadiazole]
[1]
  induction factors: 2.5
1239 bp promoter, 16 h after treatment, nontreated plants C = 100
  Induction of the GUS activity %: 250%

## COC(=O)c1cc(Cl)nc(Cl)c1 [INA, methyl-2,6-dichloroisonicotinic]
  GUS Activity: 1,700 pmol MU/min.mg
  Induction %: 200%

## CC/C=C\CC1C(=O)CCC1CC(=O)OC (stereo not shown) [Methyl jasmonate, methyl jasmonate]
[1]
  induction factors: 14.5

## O=C(O)c1ccccc1O [SA, salicylic acid]
  GUS Activity: 1,200 pmol MU/min.mg
  Induction %: 200%
